According to patent US7015306B2 (BioSynthema, Inc., priority 1999, dated 2006):
*1 amine or outer side, *2 acyl side, *3 side chain or, on linkers, in order; H or OH if unused. Where a SMILES comes first, the peptide text is derived from it. [ ]: non-standard residue; d: D form. The star is where a group is joined. ξ: configuration not given here. Abu(1-amidino-4-piperidyl) = N=C(N)N1CCC(CC[C@H](N)C(=O)O)CC1; Ala(piperidin-4-yl) = O=C([C@H](CC1CCN([*:3])CC1)N[*:1])[*:2]; Gly(1-amidinopiperidin-4-yl) = N=C(N)N1CCC([C@H](N)C(=O)O)CC1; DTPA = O=C(O)CN(CCN(CC(=O)O)CC(=O)O)CCN(CC(=O)O)CC(=O)*; Phe(4-guanidino) = N=C(N)Nc1ccc(C[C@H](N)C(=O)O)cc1; ξGly(4-Pip(1-amidino)) = N=C(N)N1CCC(C(N)C(=O)O)CC1; X2 = NC[C@H]1CC[C@H](C[C@H](N[*:1])C(=O)[*:2])CC1; X1 = CC(C)C[C@@H](CN[C@@H](CC(C)C)C(N)=O)N*; X3 = CC[C@H](C)[C@@H](COC(=O)[*:2])N[*:1]; Chg = N[C@H](C(=O)O)C1CCCCC1; Tle = CC(C)(C)[C@H](N)C(=O)O; NHOH = ON*

Columns and labels:
[1] = In vitro urine stability assay (HPLC) of In-111 labeled peptide; type: in vitro ADME; settings: for remaining at 4 h: rat, t = 4 h
Experimental: (§1) All reagents were purchased from Sigma unless otherwise noted. The peptide and ^111InCl3 in 0.05 N HCl were incubated in a sodium acetate/ascorbic acid buffer for 30 minutes at room temperature. The reaction was diluted with 5% ethanol/95% PBS before using in subsequent in vitro assays.
(§2) Human serum was purchased from Sigma (H 1388). The labeled peptide was incubated in either human serum or rat urine at 37EC for the specified amount of time. An aliquot was filtered through a 0.45 μm syringe filter prior to HPLC injection.

[2] = In vitro serum stability assay (HPLC) of In-111 labeled peptide; type: in vitro ADME, human; settings: for remaining at 4 h: t = 4 h
Experimental: as §1, §2

[3] = Table 4, rat urine, read-out: Urine Stability, Urine (t = 4 h)
[4] = Table 4, human serum, read-out: Serum Stability, Serum (t = 4 h)
[5] = 37EC, read-out: HPLC Evaluation of Urine Stability at 37EC, Urine, t = 4 h
[6] = human serum, 37EC, read-out: HPLC Evaluation of Serum Stability at 37EC, Serum, t = 4 h

| SMILES | remaining at 4 h [1, 5] [%] | remaining at 4 h [2, 6] [%] | % of peptide at 4 hours after incubation at 37EC, Urine ([1]; rat urine, 37EC, 4 hours) [%] | % of peptide at 4 hours after incubation at 37EC, Serum ([2]; human serum, 37EC, 4 hours) [%] | further results |
| --- | --- | --- | --- | --- | --- |
| CC(C)C[C@H](NC(=O)[C@@H](NC(=O)[C@H](Cc1ccc(O)cc1)NC(=O)[C@@H]1CCCN1C(=O)[C@H](CCCNC(=N)N)NC(=O)C(NC(=O)[C@@H]1CCCN1C(=O)[C@@H](CCCCN)NC(=O)CN(CCN(CCN(CC(=O)O)CC(=O)O)CC(=O)O)CC(=O)O)C1CCN(C(=N)N)CC1)C(C)(C)C)C(=O)O (single isomer, unassigned) [In-111-DTPA-DK-P-G(PipAm)-R-P-Y-tBuG-L, metal not drawn] |  |  |  |  | remaining at 4 h [1, 3]: 63%; remaining at 4 h [2, 4]: 87.5% |
| CC[C@H](C)[C@H](NC(=O)[C@H](Cc1ccc(O)cc1)NC(=O)[C@@H]1CCCN1C(=O)[C@H](CCCNC(=N)N)NC(=O)C(NC(=O)[C@@H]1CCCN1C(=O)[C@@H](CCCCN)NC(=O)CN(CCN(CCN(CC(=O)O)CC(=O)O)CC(=O)O)CC(=O)O)C1CCN(C(=N)N)CC1)C(=O)N[C@@H](CC(C)C)C(=O)O (single isomer, unassigned) [In-111-DTPA-DK-P-G(PipAm)-R-P-Y-I-L, metal not drawn] | 16.6 | 19.5 |  |  |  |
| CC(C)C[C@H](NC(=O)[C@@H](NC(=O)[C@H](Cc1ccc(O)cc1)NC(=O)[C@@H]1CCCN1C(=O)[C@H](CCCNC(=N)N)NC(=O)[C@@H](NC(=O)[C@@H]1CCCN1C(=O)[C@H](CC1CCNCC1)NC(=O)CN(CCN(CCN(CC(=O)O)CC(=O)O)CC(=O)O)CC(=O)O)C1CCN(C(=N)N)CC1)C(C)(C)C)C(=O)O [DTPA-(Pip)Ala-Pro-Gly(PipAm)-Arg-Pro-Tyr-tBuGly-Leu-OH] ({DTPA}-[Ala(piperidin-4-yl)]P[Gly(1-amidinopiperidin-4-yl)]RPY[Tle]L-OH) |  |  | 98.3 | 98.9 |  |
| CC[C@H](C)[C@H](NC(=O)[C@H](Cc1ccc(O)cc1)NC(=O)[C@@H]1CCCN1C(=O)[C@H](CCCN=C(N)N)NC(=O)[C@H](Cc1ccc(NC(=N)N)cc1)NC(=O)[C@@H]1CCCN1C(=O)[C@@H](CCCCN)NC(=O)CN(CCN(CCN(CC(=O)O)CC(=O)O)CC(=O)O)CC(=O)O)C(=O)N[C@@H](CC(C)C)C(=O)O [In-111-DTPA-DK-P-F(Gu)-R-P-Y-I-L, metal not drawn] | 1.5 | 14.1 |  |  | HPLC Evaluation of Urine Stability at 37EC, Urine, t = 0 ([1]; rat urine): 94.1%; HPLC Evaluation of Serum Stability at 37EC, Serum, t = 0 ([2]; human serum): 98.7% |
| CC(C)C[C@H](NC(=O)[C@@H](NC(=O)[C@H](Cc1ccc(O)cc1)NC(=O)[C@@H]1CCCN1C(=O)[C@H](CCCN=C(N)N)NC(=O)[C@H](Cc1ccc(NC(=N)N)cc1)NC(=O)[C@@H]1CCCN1C(=O)[C@@H](CCCCN)NC(=O)CN(CCN(CCN(CC(=O)O)CC(=O)O)CC(=O)O)CC(=O)O)C(C)(C)C)C(=O)O [In-111-DTPA-DK-P-F(Gu)-R-P-Y-tBuG-L, metal not drawn] ({DTPA}-[dK]P[Phe(4-guanidino)]RPY[Tle]L-OH) |  |  |  |  | remaining at 4 h [1, 3]: 51.1%; remaining at 4 h [2, 4]: 72% |
| CC(C)C[C@@H](CN[C@@H](CC(C)C)C(N)=O)NC(=O)[C@H](Cc1ccc(O)cc1)NC(=O)[C@@H]1CCCN1C(=O)[C@H](CCCNC(=N)N)NC(=O)[C@H](Cc1ccc(NC(=N)N)cc1)NC(=O)[C@@H]1CCCN1C(=O)[C@@H](CCCCN)NC(=O)CN(CCN(CCN(CC(=O)O)CC(=O)O)CC(=O)O)CC(=O)O [In-111-DTPA-DK-P-F(Gu)-R-P-Y-L(Ψ-CH2NH)-L-NH2, metal not drawn] ({DTPA}-[dK]P[Phe(4-guanidino)]RPY-X1) |  |  |  |  | remaining at 4 h [1, 3]: 95.7%; remaining at 4 h [2, 4]: 76.2% |
| CC[C@H](C)[C@H](NC(=O)[C@H](Cc1ccc(O)cc1)NC(=O)[C@@H]1CCCN1C(=O)[C@H](CCCNC(=N)N)NC(=O)[C@H](CCCNC(=N)N)NC(=O)CN(CCN(CCN(CC(=O)O)CC(=O)O)CC(=O)O)CC(=O)O)C(=O)N[C@@H](CC(C)C)C(=O)O [In-111-DTPA-R-R-P-Y-I-L, metal not drawn, reference compound] | 13 | 1.6 |  |  | HPLC Evaluation of Urine Stability at 37EC, Urine, t = 0 ([1]; rat urine): 96.7%; remaining at 4 h [1, 3]: 14%; HPLC Evaluation of Serum Stability at 37EC, Serum, t = 0 ([2]; human serum): 92% |
| CC[C@H](C)[C@H](NC(=O)[C@H](Cc1ccc(O)cc1)NC(=O)[C@@H]1CCCN1C(=O)[C@H](CCCNC(=N)N)NC(=O)[C@H](CCCNC(=N)N)NC(=O)CN(CCN(CCN(CC(=O)O)CC(=O)O)CC(=O)O)CC(=O)O)C(=O)N[C@@H](CC(C)C)C(=O)O [DTPA-Arg-Arg-Pro-Tyr-Ile-Leu-OH, reference compound] |  |  | 13.0 | 1.6 | % of compound present at 4 hours in urine ([1]; rat urine, 37EC, 4 hours): 13.0%; % of compound present at 4 hours in serum ([2]; human serum, 37EC, 4 hours): 1.6% |
| CC(C)C[C@H](NC(=O)[C@@H](NC(=O)[C@@H](Cc1ccc(O)cc1)NC(=O)[C@@H]1CCCN1C(=O)[C@H](CCCNC(=N)N)NC(=O)C(NC(=O)[C@@H]1CCCN1C(=O)[C@@H](CCCCN)NC(=O)CN(CCN(CCN(CC(=O)O)CC(=O)O)CC(=O)O)CC(=O)O)C1CCN(C(=N)N)CC1)C(C)(C)C)C(=O)O (stereo partly drawn) [DTPA-DLys-Pro-Gly(PipAm)-Arg-Pro-DTyr-tBuGly-Leu-OH] |  |  | 98.3 | 98.9 |  |
| CC[C@H](C)[C@H](NC(=O)[C@H](Cc1ccc(O)cc1)NC(=O)[C@@H]1CCCN1C(=O)[C@H](CCCNC(=N)N)NC(=O)C(CCc1ccnc(N)n1)NC(=O)[C@@H]1CCCN1C(=O)[C@@H](CCCCN)NC(=O)CN(CCN(CCN(CC(=O)O)CC(=O)O)CC(=O)O)CC(=O)O)C(=O)N[C@@H](CC(C)C)C(=O)O (single isomer, unassigned) [In-111-DTPA-DK-P-Aba(Apy)-R-P-Y-J-L, metal not drawn] | 6 | 4.3 |  |  | HPLC Evaluation of Urine Stability at 37EC, Urine, t = 0 ([1]; rat urine): 95.6%; HPLC Evaluation of Serum Stability at 37EC, Serum, t = 0 ([2]; human serum): 96.9% |
| CC(C)C[C@H](NC(=O)[C@@H](NC(=O)[C@H](Cc1ccc(O)cc1)NC(=O)[C@@H]1CCCN1C(=O)[C@H](CCCNC(=N)N)NC(=O)C(NC(=O)[C@@H]1CCCN1C(=O)[C@@H](CCCCN)NC(=O)CN(CCN(CCN(CC(=O)O)CC(=O)O)CC(=O)O)CC(=O)O)C1CCN(C(=N)N)CC1)C(C)(C)C)C(=O)NO (stereo partly drawn) [DTPA-DLys-Pro-Gly(PipAm)-Arg-Pro-Tyr-tBuGly-Leu-HA] ({DTPA}-[dK]P[ξGly(4-Pip(1-amidino))]RPY[Tle]L-{NHOH}) |  |  | 60.2 | 89.2 |  |
| CC[C@H](C)[C@@H](COC(=O)N[C@@H](CC(C)C)C(=O)O)NC(=O)[C@H](Cc1ccc(O)cc1)NC(=O)[C@@H]1CCCN1C(=O)[C@H](CCCNC(=N)N)NC(=O)[C@@H](NC(=O)[C@@H]1CCCN1C(=O)[C@@H](CCCCN)NC(=O)CN(CCN(CCN(CC(=O)O)CC(=O)O)CC(=O)O)CC(=O)O)C1CCN(C(=N)N)CC1 [DTPA-DLys-Pro-Gly(PipAm)-Arg-Pro-Tyr-Ile^R-OCO-Leu-OH] ({DTPA}-[dK]P[Gly(1-amidinopiperidin-4-yl)]RPY[X3]L-OH) |  |  | 89.8 | 94.6 |  |
| CC(C)C[C@H](NC(=O)[C@@H](NC(=O)[C@H](Cc1ccc(O)cc1)NC(=O)[C@@H]1CCCN1C(=O)[C@H](CCCNC(=N)N)NC(=O)C(NC(=O)[C@@H]1CCCN1C(=O)[C@@H](CCCCN)NC(=O)CN(CCN(CCN(CC(=O)O)CC(=O)O)CC(=O)O)CC(=O)O)C1CCN(C(=N)N)CC1)C1CCCCC1)C(=O)O (stereo partly drawn) [DTPA-DLys-Pro-Gly(PipAm)-Arg-Pro-Tyr-Chg-Leu-OH] ({DTPA}-[dK]P[ξGly(4-Pip(1-amidino))]RPY[Chg]L-OH) |  |  | 7.0 | 75.2 |  |
| CC[C@H](C)[C@H](NC(=O)[C@H](Cc1ccc(O)cc1)NC(=O)[C@@H]1CCCN1C(=O)C(Cc1ccc(NC(=N)N)cc1)NC(=O)[C@H](CCCNC(=N)N)NC(=O)[C@@H]1CCCN1C(=O)[C@@H](CCCCN)NC(=O)CN(CCN(CCN(CC(=O)O)CC(=O)O)CC(=O)O)CC(=O)O)C(=O)N[C@@H](CC(C)C)C(=O)O (single isomer, unassigned) [In-111-DTPA-DK-P-R-F(Gu)-P-Y-I-L, metal not drawn] | 0 | 16.3 |  |  | HPLC Evaluation of Urine Stability at 37EC, Urine, t = 0 ([1]; rat urine): 90.4%; HPLC Evaluation of Serum Stability at 37EC, Serum, t = 0 ([2]; human serum): 94% |
| CC(C)C[C@H](NC(=O)[C@@H](NC(=O)[C@H](Cc1ccc(O)cc1)NC(=O)[C@@H]1CCCN1C(=O)[C@H](CCCNC(=N)N)NC(=O)[C@H](CCC1CCN(C(=N)N)CC1)NC(=O)[C@@H]1CCCN1C(=O)[C@@H](CCCCN)NC(=O)CN(CCN(CCN(CC(=O)O)CC(=O)O)CC(=O)O)CC(=O)O)C(C)(C)C)C(=O)O [DTPA-DLys-Pro-homoAla(PipAm)-Arg-Pro-Tyr-tBuGly-Leu-OH] ({DTPA}-[dK]P[Abu(1-amidino-4-piperidyl)]RPY[Tle]L-OH) |  |  | 71.3 | 84.3 |  |
| CC(C)C[C@H](NC(=O)[C@@H](NC(=O)[C@H](Cc1ccc(O)cc1)NC(=O)[C@@H]1CCCN1C(=O)[C@H](CCCNC(=N)N)NC(=O)[C@@H](NC(=O)[C@@H]1CCCN1C(=O)[C@H](C[C@H]1CC[C@H](CN)CC1)NC(=O)CN(CCN(CCN(CC(=O)O)CC(=O)O)CC(=O)O)CC(=O)O)C1CCN(C(=N)N)CC1)C(C)(C)C)C(=O)O [Compound XII, DTPA-trans-Cha(4-CH2NH2)-Pro-Gly(PipAm)-Arg-Pro-Tyr-tBuGly-Leu-OH] ({DTPA}-[X2]P[Gly(1-amidinopiperidin-4-yl)]RPY[Tle]L-OH) |  |  | 89.4 | 94.8 |  |
